Data on 1 compound can be found in ChEMBL document CHEMBL3392926, “Antiprotozoal Activity Profiling of Approved Drugs: A Starting Point toward Drug Repositioning”.

Experiment [1] can be described thus: DNDI: Cytotoxicity in Vitro, 96 hour, in primary peritoneal mouse macrophages. It is filed as functional, cell-based. The note with it: Macrophage.
Experiment [2] can be described thus: cells. It counts as functional, cell-based. The note with it: Mus musculus, NMRI, BalbC or CD1 mice, Macrophage, 96 h.
Description: DNDI: Cytotoxicity in Vitro, 96 hour, in mouse macrophages (infected-amastigotes)
Experiment [3] relates to Leishmania donovani. Description: microbe, parasite or virus in culture. It is filed as functional, organism-based, MHOM/ET/67/L82. The note with it: Leishmania donovani, MHOM/ET/67/L82, 96 h.
Description: DNDI: Leish (macro) in Vitro, 96 hour
The nature of experiment [4]: cells. It is filed as functional, cell-based. The note with it: Rattus norvegicus, L6, 72 h.
Description: DNDI: Cytotoxicity in Vitro, 72 hour, in rat skeletal myoblast cells
For experiment [5], the system named is Trypanosoma cruzi. Description: microbe, parasite or virus in culture. The note with it: Trypanosoma cruzi, Tulahuen C4 (LacZ), 96 h. It counts as functional, organism-based, Tulahuen C4 (LacZ).
Description: DNDI: Chagas in Vitro, 96 hour
The test system of experiment [6] is Leishmania donovani. Description: microbe, parasite or virus in culture. It counts as functional, organism-based, MHOM/ET/67/L82. The conditions noted are these: Leishmania donovani, MHOM/ET/67/L82, 72 h.
Description: DNDI: Leish (axenic) in Vitro, 72 hour
Experiment [7] deals with Plasmodium falciparum. Description: microbe, parasite or virus in culture. It counts as functional, organism-based, K1. The conditions noted are these: Plasmodium falciparum, K1, 72 h.
Description: DNDI: Malaria in Vitro, 72 hour
Experiment [8] has as its system Trypanosoma brucei rhodesiense. Description: microbe, parasite or virus in culture. It counts as functional, organism-based, STIB 900. The conditions noted are these: Trypanosoma brucei, STIB 900, 72 h.
Description: DNDI: HAT in Vitro, 72 hour

With `Cc1cc(C2CCCCC2)n(O)c(=O)c1` [CICLOPIROX OLAMINE], the half-inhibitory concentration (IC50) in experiment [1] was 20.3 µM; in experiment [2], > 11.2 µM; in experiment [3] it was 9.09 µM; in experiment [4], 1.04 µM; in experiment [5], 2.49 µM; in experiment [6], 1.64 µM. In addition, the concentration for half-maximal inhibition (IC50) in experiment [7] was 3.75 µM; in experiment [8] it was 0.8 µM.
